Experimental data taken from US11479546B2, “Antimalarial hexahydropyrimidine analogues” (UCB Biopharma SRL, priority 2018, dated 2022).

What follows are compounds tested on Plasmodium falciparum 3D7 (assay: P. falciparum 3D7 asexual blood stage assay, Assay Procedure Version 1 (SYBR green readout)). Conditions: 3D7, Erythrocyte, Version 1 of the assay procedure (no asterisk), 72 h incubation in infected erythrocytes, 10,000 nM to 0.51 nM.
Format: cell-based
Procedure: Asexual Blood Stage Assay
The assay used to measure the effect of test compounds on a bloodstream stage of Plasmodium falciparum 3D7 strain employs SYBR green as the readout. This is a dye that binds to double stranded deoxyribonucleic acid (DNA) with a resulting increase in fluorescence, allowing detection of P. falciparum DNA in infected erythrocytes, and thereby providing a measure of parasite growth and propagation.
P. falciparum Culture Maintenance
Erythrocytes (A+blood) were prepared for both parasite culture and assay by washing 4 times with incomplete media (15.9 g RPMI 1640 (25 mM HEPES, L-glutamine), 1 g NaHCO3, 2 g glucose, 400 μL gentacin (500 mg/mL), 2 mL hypoxanthine solution (13.6 g/L in 0.1M NaOH pH 7.3) in 1 litre of media). The cells were centrifuged at 1800 g for 5 minutes, before decanting the supernatant and re-suspending in fresh incomplete media. On the final wash, the cells were re-suspended in complete media (incomplete media with 5 g/L AlbumaxII), and centrifuged at 1800 g for 3 minutes. This cell sediment was treated as 100% haematocrit.
P. falciparum 3D7 was cultured in erythrocytes at 5% haematocrit in complete media at 37° C. (1% O2, 3% CO2, balance N2). Cultures were split on a weekly basis to achieve a 1% parasitaemia in erythrocites at 5% haematocrit in fresh media. Culture media is replaced by fresh media every other day (2 times during the week).
Assay Procedure—Version 1
On day 1, test compounds were added to assay plates using Echo dispensing technology (3 fold dilution and 10 points titration). 50 nL of each compound dilution was added to 50 μL of culture (5% haematocrit, 0.5% parasitaemia) and incubated for 72 h at 37° C. (1% O2, 3% CO2, balance N2). Final concentrations of test compounds ranged from 10,000 nM to 0.51 nM, in […].
On day 4, 10 μL SYBR green (Invitrogen S7563 supplied as 10,000×concentrate in DMSO) pre-diluted to 3× concentrate with Lysis buffer (20 mM Tris pH 7.9, 5% EDTA, 0.16% w/v, 1.6% TX100 v/v) was added to the cultures and incubated in the dark, overnight, at room temperature.
On day 5, fluorescent signal was measured using a BioTek plate reader (excitation 485 nm, emission 528 nm). All data were processed using IDBS ActivityBase. Raw data were converted into percent inhibition through linear regression by setting the high inhibition control as 100% and the no inhibition control as 0%. Quality control criteria for passing plates were as follows: Z′>0.5, S:B>3, % CV(no inhibition control)<15. The formula used to calculate Z′ is
All EC50 curve fitting was undertaken using the following 4 parametric equation:
[formula] where A=% inhibition at bottom; B=% inhibition at top; C=EC50; D=slope; x=inhibitor concentration; and y=% inhibition. […] Assay Procedure—Version 2

IC50	SMILES
690 nM	Cc1cc(Nc2cccc([C@]3(C)CC(=O)N(C4CCOCC4)C(=N)N3)c2Cl)ccc1F [Example 10, (6S)-6-[2-Chloro-3-(4-fluoro-3-methylanilino)phenyl]-2-imino-6-methyl-3-(tetrahydropyran-4-yl)hexahydropyrimidin-4-one]
280 nM	Cc1ccc(Nc2cccc([C@]3(C)CC(=O)N(C4CCOCC4)C(=N)N3)c2Cl)cn1 [Example 14, (6S)-6-{2-Chloro-3-[(6-methyl-pyridin-3-yl)amino]phenyl}-2-imino-6-methyl-3-(tetrahydro-pyran-4-yl)hexahydropyrimidin-4-one]
1530 nM	C[C@@]1(c2cccc(Nc3ccccc3Cl)c2Cl)CC(=O)N(C2CCOCC2)C(=N)N1 [Example 15, (6S)-6-[2-Chloro-3-(2-chloro-anilino)phenyl]-2-imino-6-methyl-3-(tetrahydropyran-4-yl)hexahydropyrimidin-4-one]
2290 nM	C[C@@]1(c2cccc(Nc3ccccc3C(F)(F)F)c2Cl)CC(=O)N(C2CCOCC2)C(=N)N1 [Example 16, (6S)-6-{2-Chloro-3-[2-(trifluoromethyl)anilino]-phenyl}-2-imino-6-methyl-3-(tetrahydropyran-4-yl)-hexahydropyrimidin-4-one]
996 nM	Cc1ncc(Nc2cccc([C@]3(C)CC(=O)N(C4CCOCC4)C(=N)N3)c2Cl)cn1 [Example 19, (6S)-6-{2-Chloro-3-[(2-methyl-pyrimidin-5-yl)amino]phenyl}-2-imino-6-methyl-3-(tetrahydro-pyran-4-yl)hexahydropyrimidin-4-one]
2310 nM	C[C@@]1(c2cccc(Nc3cccnc3)c2Cl)CC(=O)N(C2CCOCC2)C(=N)N1 [Example 20, (6S)-6-[2-Chloro-3-(pyridin-3-ylamino)phenyl]-2-imino-6-methyl-3-(tetrahydropyran-4-yl)hexahydropyrimidin-4-one]
1180 nM	C[C@@]1(c2cccc(Nc3cccc4ncccc34)c2Cl)CC(=O)N(C2CCOCC2)C(=N)N1 [Example 21, (6S)-6-[2-Chloro-3-(quinolin-5-ylamino)phenyl]-2-imino-6-methyl-3-(tetrahydropyran-4-yl)hexahydropyrimidin-4-one]
1340 nM	COc1cc(F)cc(Nc2cccc([C@]3(C)CC(=O)N(C4CCOCC4)C(=N)N3)c2Cl)c1 [Example 23, (6S)-6-[2-Chloro-3-(3-fluoro-5-methoxyanilino)phenyl]-2-imino-6-methyl-3-(tetrahydro-pyran-4-yl)hexahydropyrimidin-4-one]
821 nM	C[C@@]1(c2cccc(Nc3ccc(N4CCOCC4)nc3)c2Cl)CC(=O)N(C2CCOCC2)C(=N)N1 [Example 25, (6S)-6-(2-Chloro-3-{[6-(morpholin-4-yl)pyridin-3-yl]amino}phenyl)-2-imino-6-methyl-3-(tetrahydropyran-4-yl)hexahydropyrimidin-4-one]
236 nM	COc1ccc(F)cc1Nc1cccc([C@]2(C)CC(=O)N(C3CCOCC3)C(=N)N2)c1Cl [Example 27, (6S)-6-[2-Chloro-3-(5-fluoro-2-methoxyanilino)phenyl]-2-imino-6-methyl-3-(tetrahydro-pyran-4-yl)hexahydropyrimidin-4-one]
2960 nM	Cc1ncccc1Nc1cccc([C@]2(C)CC(=O)N(C3CCOCC3)C(=N)N2)c1Cl [Example 28, (6S)-6-{2-Chloro-3-[(2-methyl-pyridin-3-yl)amino]phenyl}-2-imino-6-methyl-3-(tetrahydro-pyran-4-yl)hexahydropyrimidin-4-one]
851 nM	C[C@@]1(c2cccc(Nc3cc(C(F)(F)F)cnc3Cl)c2Cl)CC(=O)N(C2CCOCC2)C(=N)N1 [Example 32, (6S)-6-(2-Chloro-3-{[2-chloro-5-(trifluoromethyl)pyridin-3-yl]amino}phenyl)-2-imino-6-methyl-3-(tetrahydropyran-4-yl)hexahydropyrimidin-4-one]
790 nM	C[C@@]1(c2cccc(Nc3cc(Cl)cc(C#N)c3)c2Cl)CC(=O)N(C2CCOCC2)C(=N)N1 [Example 34, 3-Chloro-5-{2-chloro-3-[(4S)-2-imino-4-methyl-6-oxo-1-(tetrahydropyran-4-yl)-hexahydropyrimidin-4-yl]-anilino}benzonitrile]

Further lines, the compound ahead of its results:

SMILES	IC50
C[C@@]1(c2cccc(Nc3cccc(C#N)c3)c2Cl)CC(=O)N(C2CCOCC2)C(=N)N1 [Example 9, 3-{2-Chloro-3-[(4S)-2-imino-4-methyl-6-oxo-1-(tetrahydro-pyran-4-yl)hexahydropyrimidin-4-yl]anilino}benzonitrile]	333 nM
C[C@@]1(c2cccc(Nc3ccc(C(F)(F)F)cc3)c2Cl)CC(=O)N(C2CCOCC2)C(=N)N1 [Example 11, (6S)-6-{2-Chloro-3-[4-(tri-fluoromethyl)anilino]phenyl}-2-imino-6-methyl-3-(tetrahydro-pyran-4-yl)hexahydropyrimidin-4-one]	820 nM
C[C@@]1(c2cccc(Nc3ccc(F)cc3)c2Cl)CC(=O)N(C2CCOCC2)C(=N)N1 [Example 12, (6S)-6-[2-Chloro-3-(4-fluoro-anilino)phenyl]-2-imino-6-methyl-3-(tetrahydropyran-4-yl)hexahydropyrimidin-4-one]	200 nM
C[C@@]1(c2cccc(Nc3ccccc3)c2Cl)CC(=O)N([C@H]2C[C@@](C)(O)C2)C(=N)N1 [Example 13, (6S)-6-(3-Anilino-2-chloro-phenyl)-3-(3-hydroxy-3-methyl-cyclobutyl)-2-imino-6-methyl-hexahydropyrimidin-4-one]	230 nM
C[C@@]1(c2cccc(Nc3ccccc3C#N)c2Cl)CC(=O)N(C2CCOCC2)C(=N)N1 [Example 17, 2-{2-Chloro-3-[(4S)-2-imino-4-methyl-6-oxo-1-(tetrahydro-pyran-4-yl)hexahydropyrimidin-4-yl]anilino}benzonitrile]	270 nM
C[C@@]1(c2cccc(Nc3ccc(C#N)cc3)c2Cl)CC(=O)N(C2CCOCC2)C(=N)N1 [Example 18, 4-{2-Chloro-3-[(4S)-2-imino-4-methyl-6-oxo-1-(tetrahydro-pyran-4-yl)hexahydropyrimidin-4-yl]anilino}benzonitrile]	534 nM
C[C@@]1(c2cccc(Nc3cc(OC(F)(F)F)ccc3F)c2Cl)CC(=O)N(C2CCOCC2)C(=N)N1 [Example 22, (6S)-6-{2-Chloro-3-[2-fluoro-5-(trifluoromethoxy)anilino]-phenyl}-2-imino-6-methyl-3-(tetrahydropyran-4-yl)-hexahydropyrimidin-4-one]	1520 nM
C[C@@]1(c2cccc(Nc3ccc(C#N)c(Cl)c3)c2Cl)CC(=O)N(C2CCOCC2)C(=N)N1 [Example 24, 2-Chloro-4-{2-chloro-3-[(4S)-2-imino-4-methyl-6-oxo-1-(tetrahydropyran-4-yl)-hexahydropyrimidin-4-yl]-anilino}benzonitrile]	1670 nM
C[C@@]1(c2cccc(Nc3cccnc3C(F)(F)F)c2Cl)CC(=O)N(C2CCOCC2)C(=N)N1 [Example 26, (6S)-6-(2-Chloro-3-{[2-(trifluoromethyl)pyridin-3-yl]amino}phenyl)-2-imino-6-methyl-3-(tetrahydropyran-4-yl)hexahydropyrimidin-4-one]	331 nM
C[C@@]1(c2cccc(Nc3ccnc(F)c3)c2Cl)CC(=O)N(C2CCOCC2)C(=N)N1 [Example 29, (6S)-6-{2-Chloro-3-[(2-fluoro-pyridin-4-yl)amino]phenyl}-2-imino-6-methyl-3-(tetrahydro-pyran-4-yl)hexahydropyrimidin-4-one]	539 nM
C[C@@]1(c2cccc(Nc3cnc4ccccc4c3)c2Cl)CC(=O)N(C2CCOCC2)C(=N)N1 [Example 30, (6S)-6-[2-Chloro-3-(quinolin-3-ylamino)phenyl]-2-imino-6-methyl-3-(tetrahydropyran-4-yl)hexahydropyrimidin-4-one]	640 nM
C[C@@]1(c2cccc(Nc3ccc(C(F)(F)F)nc3)c2Cl)CC(=O)N(C2CCOCC2)C(=N)N1 [Example 31, (6S)-6-(2-Chloro-3-{[6-(trifluoromethyl)pyridin-3-yl]amino}phenyl)-2-imino-6-methyl-3-(tetrahydropyran-4-yl)hexahydropyrimidin-4-one]	430 nM
C[C@@]1(c2cccc(Nc3ccc(Cl)c(F)c3)c2Cl)CC(=O)N(C2CCOCC2)C(=N)N1 [Example 33, (6S)-6-[2-Chloro-3-(4-chloro-3-fluoroanilino)phenyl]-2-imino-6-methyl-3-(tetrahydropyran-4-yl)hexahydropyrimidin-4-one]	1810 nM
